# Read-outs that look alike come from different tables or passages of the source.
# Experiments:
# [1] = test system: in vitro expanded peripheral human T cells; assay: Determination of ROS generation (activation-induced oxidative signal, H2DCF-DA, FACS); assay type: cell-based; conditions: for oxidative signal generation (T cell activation-induced mitochondrial ROS) with respiratory chain inhibitors: 15 min pre-treatment, plate-bound anti-CD3 (30 μg/ml) or PMA (10 ng/ml) 1 h (FIG. 9A)
# Description: (§1) T cell line Jurkat J16-145 cells, J16 sub-clone (2), were cultured in RPMI 1640 (+L-glutamine), 10% foetal calf serum (FCS). Gaussia luciferase NF-κB reporter J16-145 cells were cultured in IMDM, 10% FCS. Freshly isolated (“resting”) or phytohemagglutinin (PHA)-activated and 6-8 days in vitro expanded (“pre-activated”) peripheral human T cells were cultured at initial concentration of 2×10^6 cells/ml in RPMI 1640 (+L-glutamine), 10% FCS. For pre-activation-induced expansion, “resting” T cells were treated with 1 μg/ml PHA for 16 h, washed and subsequently cultured in the presence of 25 U/ml IL-2 for 6-8 days. These cells are referred to as “T cells” in the text, if not stated differently.
# (§2) Cells were stained with H2DCF-DA (5 μM) for 30 min. Next, cells were divided and 1 h stimulated with either plate-bound anti-CD3 antibody (30 μg/ml) or PMA (10 ng/ml). Treatment was terminated by ice-cold PBS and ROS generation was determined by FACS analysis (Canto II, Becton Dickinson). ROS generation was quantified as the increase in mean fluorescence intensity (MFI), calculated according to the following formula: increase in MFI (%)=[(MFIstimulated−MFIunstimulated)/MFIunstimulated]×100 (3).
# enolase (ENO) = assay: Enolase (ENO) reverse reaction activity; assay type: biochemical, human
# Description: Enolase (ENO) forward reaction was measured as NADH oxidation in ETC buffer containing 1 mM 2-phosphoglycerate, 1 mM ADP, 0.5 mM NADH, 2 U/ml LDH, 2 U/ml PK. The reverse reaction was assayed in ETC buffer containing 1 mM phosphoenolpyruvate, 1 mM ATP, 0.5 mM NADH, 2 U/ml LDH, 2 U/ml PK.
# Jurkat T cells = assay: Determination of ROS generation (activation-induced oxidative signal, H2DCF-DA, FACS); assay type: cell-based, human; conditions: 30 min pre-incubation with DOG/pyruvate, compared to equimolar glucose (Glc)/pyruvate
# Description: as §1
# as §2, with “(3). […]” for “(3).”
# ADPGK = target: T1, ADPGK (Homo sapiens, UniProt Q9BRR6); assay: ADP-dependent glucokinase (ADPGK) activity assay; assay type: biochemical; conditions: for ADPGK activity in mitochondria-enriched membrane fractions ("high g" fractions): human T cells or Jurkat T cells, 1 h stimulation
# T1 construct: endogenous in cells; host or cells: in vitro expanded human T cells or Jurkat T cells; "high g" mitochondrial or "ER-enriched" fraction
# Description: (§3) Cells were disrupted using a 27×½″ needle in ice-cold ETC buffer and the homogenates were centrifuged at 600×g, 4° C. for 10 min. For preparation of the “high g” mitochondrial (pellet) as well cytosolic (supernatant) fraction the 600×g supernatant was centrifuged at 11.000×g, 4° C. for 20 min. For preparation of the “mitochondria-enriched” fractions, the 600×g supernatant was centrifuged 10 min, 4° C. at 3,500×g (pellet). Subsequently, for preparation of the “ER-enriched fraction” the 3,500×g supernatant was centrifuged at 11.000×g, 4° C. for 20 min. The mouse heart muscle mitochondria were prepared according to the procedure for “mitochondria-enriched” fraction as described (5).
# ADPGK activity was assayed as NADP reduction in ETC buffer containing 1 mM ADP, 1 mM glucose, 0.5 mM NADP, 5 μM diadenosine pentaphosphate, and 0.05 U/ml glucose 6-phosphate dehydrogenase at pH 6.0 and 37° C. or 42° C. Assay was essentially based on the one previously described for the recombinant mouse ADPGK protein (9).
# [2] = test system: in vitro expanded T cells; assay: Oxygen electrode, mitochondrial respiratory rate; assay type: cell-based; conditions: intact human T cells, soluble anti-CD3 antibody or PMA
# Description: Mitochondrial respiratory rate was measured according to a previously described protocol (7) using computer-supported high-resolution Oroboros 1 oxygraph system (Paar, Graz, Austria). In vitro expanded T cells (5-10×10^7 cells) were placed in each electrode chamber and activated with soluble anti-CD3 antibody (10 μg/m, cross-linked with GAM, 2 μg/ml) or PMA (10 ng/ml). The experimental set-up was as previously described (8). “Mitochondrial respiratory rate” was calculated by subtracting “Background oxygen consumption rate” (recorded with a reference electrode in a presence of 5 μM oligomycin) from “Total oxygen consumption rate” (as described in (8)).
# T cells = assay: Glucose uptake (D-[3-3H] glucose); assay type: cell-based, human; conditions: after stimulation with anti-CD3 antibody or PMA
# Description: Upon treatment, cells (1-2×10^7 cells) were washed and suspended in Krebs-Ringer buffer. Subsequently, cells were incubated with 1 μCi/ml D-[3-^3H] glucose for 10 min at 37° C. Afterwards, cells were washed twice with ice-cold Krebs-Ringer buffer and intracellular D-[3-^3H] glucose was detected using a scintillation counter (LS 6500 Liquid Scintillation Counter Beckman Coulter; Brea, Calif., USA).
# GPD2 = GPD2 activity in mitochondrial fractions of T cells; assay type: biochemical, human
# Description: as §3
# Glycerol-3-phosphate-dehydrogenase (GPD2) activity was measured as cytochrome c reduction in ETC buffer containing 5 mM glycerol 3-phosphate, 2 mM NaCN, and 60 μM cytochrome c.
# [3] = test system: in vitro expanded human T cells; assay: Ubiquinol/ubiquinone content determination (HPLC); assay type: cell-based; conditions: PMA (10 ng/ml) 1 h, extracts from snap-frozen activated T cells
# Description: At least 5×10^7 in vitro expanded human T cells were treated with plate-bound anti-CD3 antibody (30 μg/ml) or PMA (10 ng/ml) for 1 h. Cells were washed, pelleted, snap-frozen in liquid nitrogen and placed on dry ice. Ubiquinol/-on extraction was performed by addition of ice-cold 200 μl hexan: isopropanol (2:1) and subsequent centrifugation (15.000 g) for 5 min at 0° C. Next, 150 μl of the supernatant was immediately injected and separated by RP-HPLC. HPLC separation and identification conditions were based on previously published methods (10, 11). […] Identification was based on UV/VIS-DAD absorption spectra and facilitated by redox response detected with volt-amperometric detector. Quantitation was performed based on UV-VIS chromatograms at wavelengths: 275 nm (ubiquinone) and 289 nm (ubiquinol). Selected qualitative and quantitative results of UV-VIS/DAD analysis were confirmed by HPLC-MS/ESI (Agilent; Santa Clara, Calif., USA).
# [4] = test system: in vitro expanded peripheral human T cells; conditions: previous work (ref. 3); cited from earlier work
# [5] = test system: mitochondria-associated HK activity; assay: Respiration-coupled hexokinase (HK)-like activity in T cell mitochondria ("high g" fraction); assay type: biochemical, human
# [6] = test system: ETC complexes I, II and III; assay: Steady-state activity of ETC enzymatic complexes in digitonin-permeabilized T cells; assay type: biochemical, human; conditions: T cells pre-treated (20 min) with BIM, TCR triggering
# Description: In vitro expanded T cells (at least 0.5×10^8) were snap-frozen in liquid nitrogen and subsequently incubated on ice in ETC buffer (20 mM Tris-HCl pH 7.4, 250 mM sucrose, 50 mM KCl, 5 mM MgCl2) with 0.015% digitonin for 30 min according to Chretien et al. (4) with minor modifications. Afterwards, cells were washed twice with ice-cold ETC buffer and subjected to assays.
# Steady-state activity of ETC enzymatic complexes was determined as described (5, 6) using a computer-tunable spectrophotometer (Spectramax Plus Microplate Reader, Molecular Devices; Sunny Vale, Calif., USA) operating in the dual wavelength mode; samples were analyzed in temperature-controlled 96-well plates in a final volume of 300 μL. The addition of standard respiratory chain inhibitors was used to ascertain the specificity of the enzymatic assays. All enzymatic activities were normalized to protein concentration. For stimulated T cells ETC enzyme activities were measured after snap-freezing and digitonin-permeabilization (as described previously). To study electron flow from complex I or complex II to complex III digitonin-permeabilized cells or mitochondrial fractions were incubated with NADH or succinate and the reduction of cytochrome c in the presence of NaCN was measured.
# mitochondrial AK = assay: Adenylate kinase (AK) activity assay; assay type: biochemical; conditions: 5 μM
# Description: AK activity was assayed as NADP reduction in ETC buffer containing 1 mM ADP, 1 mM glucose, 0.5 mM NADP, 1 U/mL HK and 0.05 U/ml glucose 6-phosphate dehydrogenase at pH 7.5 and 37° C.
# T1 sequence (Q9BRR6 23-497): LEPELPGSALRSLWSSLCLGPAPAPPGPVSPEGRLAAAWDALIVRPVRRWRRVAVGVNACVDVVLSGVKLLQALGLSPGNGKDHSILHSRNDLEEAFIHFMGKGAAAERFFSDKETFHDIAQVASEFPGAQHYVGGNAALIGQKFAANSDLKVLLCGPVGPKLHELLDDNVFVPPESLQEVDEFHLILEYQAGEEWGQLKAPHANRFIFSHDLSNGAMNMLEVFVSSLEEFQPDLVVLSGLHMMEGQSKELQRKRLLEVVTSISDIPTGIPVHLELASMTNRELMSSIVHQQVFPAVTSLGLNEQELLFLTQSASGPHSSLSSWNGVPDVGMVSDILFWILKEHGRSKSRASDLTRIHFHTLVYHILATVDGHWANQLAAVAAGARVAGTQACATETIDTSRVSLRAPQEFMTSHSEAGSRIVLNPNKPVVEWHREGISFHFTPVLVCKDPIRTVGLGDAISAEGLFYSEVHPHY
molecule,measurement,setting,value
O=C(CC(=O)C(F)(F)F)c1cccs1 [TTFA],oxidative signal generation (T cell activation-induced mitochondrial ROS) with respiratory chain inhibitors,[1],moderate inhibition
[N-]=[N+]=[N-].[Na+] [NaN3],oxidative signal generation (T cell activation-induced mitochondrial ROS) with respiratory chain inhibitors,[1],not blocked
[F-].[Na+] [NaF],reverse ENO activity,enolase (ENO); T cells,blocked
NaVO3,TCR-induced increase of reverse ENO activity,enolase (ENO),abolished
same,reverse ENO activity,enolase (ENO),reduced the activity but did not block it
"O=CC[C@@H](O)[C@H](O)[C@H](O)CO [DOG, 2-deoxy-glucose]",activation-induced ROS,"[1]; expanded human T cells, 30 min pre-incubation with DOG/pyruvate, compared to equimolar glucose (Glc)/pyruvate",lower amounts
same,activation-induced ROS,Jurkat T cells,lower amounts
C=C(C)[C@H]1Cc2c(ccc3c2O[C@@H]2COc4cc(OC)c(OC)cc4[C@@H]2C3=O)O1 [rotenone],oxidative signal generation (T cell activation-induced mitochondrial ROS) with respiratory chain inhibitors,[1],inhibition
CC[C@H]1/C=C/C=C/C[C@@H](C)[C@H](O)[C@@](C)(O)C(=O)[C@@H](C)[C@H](O)[C@@H](C)C(=O)[C@@H](C)[C@H](O)[C@@H](C)/C=C/C(=O)O[C@@H]2[C@H](C)[C@H](CC1)O[C@]1(CC[C@H](C)[C@H](C[C@@H](C)O)O1)[C@H]2C [oligomycin],oxidative signal generation (T cell activation-induced mitochondrial ROS) with respiratory chain inhibitors,[1],not blocked
"anti-CD3 antibody: Monoclonal mouse antibody (OKT3) against human CD3, agonistic, used for TCR triggering","ADPGK activity in mitochondria-enriched membrane fractions (""high g"" fractions)",ADPGK,enhanced
same,mitochondrial oxygen consumption,[2],significant inhibition
same,cellular uptake of radioactively labeled glucose,T cells,rapidly rose
"CCCCCCCCCCCCCC(=O)O[C@@H]1[C@@H](C)[C@@]2(O)[C@@H](C=C(CO)C[C@]3(O)C(=O)C(C)=C[C@@H]23)[C@@H]2C(C)(C)[C@]12OC(C)=O [PMA, phorbol 12-myristate 13-acetate]",GPD2 activity,"GPD2; mitochondria-enriched membrane fractions of pre-activated human T cells, PMA (10 ng/ml) 1 h",moderately up-regulated
same,"ADPGK activity in mitochondria-enriched membrane fractions (""high g"" fractions)",ADPGK,Comparable up-regulation
same,mitochondrial oxygen consumption,[2],significant inhibition
same,cellular uptake of radioactively labeled glucose,T cells,rapidly rose
same,rise in the content of ubiquinol over ubiquinone,[3],57%
antimycin,oxidative signal generation (T cell activation-induced mitochondrial ROS) with respiratory chain inhibitors,[1],increased
CO/C(=C/C(N)=O)[C@H](C)[C@H](/C=C/c1csc(-c2csc([C@@H](C)/C=C/C=C/C(C)C)n2)n1)OC [myxothiazol],oxidative signal generation (T cell activation-induced mitochondrial ROS) with respiratory chain inhibitors,[1],not
CN(C)C(=N)N=C(N)N [metformin],oxidative signal generation (T cell activation-induced mitochondrial ROS) with respiratory chain inhibitors,[1],inhibition
same,generation of the oxidative signal,[4],blocked
N#CC(C#N)=NNc1cccc(Cl)c1 [CCCP],sensitivity of the enhanced HK-like enzymatic activity,"[5]; CCCP (0.125 μM), NaCN (10 mM)",insensitivity
"CN(C)CCCn1cc(C2=C(c3c[nH]c4ccccc34)C(=O)NC2=O)c2ccccc21 [BIM, bis-indolyl-maleimidate I]",TCR-induced mitochondrial ROS generation,"[1]; 20 min pre-incubation, 1 h plate-bound anti-CD3 antibody (30 μg/ml)",inhibitor
same,"activation-induced changes of enzymatic activities of complexes I, II and III",[6],significantly blocked
same,TCR-induced GPD2 activation,"GPD2; mitochondrial fractions of activated T cells, BIM pre-treatment",significantly blocked
same,T cell activation-induced enhancement of the ADPGK-like enzymatic activity,"ADPGK; ""high g"" fractions, BIM pre-treatment (20 min)",completely abolished
diadenosine pentaphosphate [Ap5A],inhibition of TCR-induced HK-like activity,"[5]; 5 μM, presence of ADP and succinate",up to 40%
same,activation-induced rise in HK-like activity,[5]; Ap5A 5 μM,unaffected
same,inhibition of mitochondrial AK,mitochondrial AK,80-90%

# From patent US20160113958A1, “MODULATORS OF ADP-DEPENDENT GLUCOKINASE (ADPGK) AND GLYCEROL-3-PHOSPHATE DEHYDROGENASE (GPD2) FOR THERAPY” (DEUTSCHES KREBSFORSCHUNGSZENTRUM STIFTUNG DES ÖFFENTLICHEN …, priority 2011, published 2016)
